# Results: patent US20020115728A1, “Compositions and methods for treating cardiovascular disorders” (priority 2000, published 2002)
# Marks after values point to notes of the source that are not given here.
# Tested on: aortas of apoE−/− mice
# Test: Aortic lipids, oxidised lipids and antioxidants by HPLC of aortic homogenates
# Format: in vivo
# Conditions: 24 weeks
# Experimental: Male C57BL/6J mice, homozygous for the disrupted apoE gene (apoE−/−) were fed standard chow (Lab-Feed, Sydney, Australia) until aged 10 weeks. […] The high fat diet (control and probucol-supplemented) was prepared, according to the specifications of the Harlan Teklad diet TD88137.
# After bleeding, mice were gravity-perfused for 5 min with DPBS containing 20 μM BHT and 1 mM EDTA (Buffer A) and aortas removed as described in Letters J M, et al (1999). Briefly, hearts, ascending and descending aortas (past the femoral junction) were excised and carefully cleaned. […] Once cleaned, aortas were separated from the heart taking care to include all aortic material while avoiding heart tissue. To obtain sufficient material for HPLC analysis (i.e., 30-40 mg wet weight tissue) it was necessary to pool 7-8 aortas. Separate pools of aortas were prepared for both groups and then immediately frozen in Buffer A and stored at −80° C. until analyses.
# Pooled aortas were snap frozen in liquid nitrogen, pulverised, resuspended in Buffer A, homogenised and then either treated with metaphosphoric acid (for ascorbate) or extracted and the hexane fraction analysed for lipid-soluble antioxidants, cholesterol (C), choleseteryl esters (CE), lipid hydroperoxides (LOOH) and cholesteryl ester hydroxides (CE-OH) by HPLC as described in Methods Enzymol. 1994;233:469-489. LOOH and CE-OH were measured as markers of lipoprotein lipid oxidation, as they are the primary and major oxidation products formed when lipoproteins from apoE−/− mice undergo oxidation. […] All compounds were quantified by peak area comparison with authentic standards, and protein determined.
# ApoE−/− mice were fed either a control or probucol-supplemented diet for 24 weeks before aortas and plasma were analysed.
# [1] = lipid-standardised oxidised lipids, 1% probucol
smiles,measurement,setting,value
"CC(C)(Sc1cc(C(C)(C)C)c(O)c(C(C)(C)C)c1)Sc1cc(C(C)(C)C)c(O)c(C(C)(C)C)c1 [Probucol, probucol]",effect on aortic content of lipid standardised oxidized lipids,1% probucol,did not affect
same,Aorta Ascorbate,"1% probucol, aorta",322 ± 320 pmol/mgp
same,Aorta C18:2,"1% probucol, aorta",12 ± 6 nmol/mgp
same,Aorta C20:4,"1% probucol, aorta",4.0 ± 2 nmol/mgp
same,Aorta CE-OH,"1% probucol, aorta",0.17 ± 0.08 nmol/mgp
same,Aorta LOOH,"1% probucol, aorta",0.080 nmol/mgp
same,Aorta Total coenzyme Q,"1% probucol, aorta",139 ± 57 pmol/mgp
same,Aorta Ubiquinone-9,"1% probucol, aorta",114 ± 47 pmol/mgp
same,Aorta Ubiquinone-10,"1% probucol, aorta",25 ± 10 pmol/mgp
same,Aorta α-Tocopherol,"1% probucol, aorta",380 pmol/mgp
same,Aorta α-Tocopherylquinone,"1% probucol, aorta",30 ± 2 pmol/mgp
same,Aorta C (cholesterol),"high fat diet with 1% probucol, aorta",173 ± 60 nmol/mgp
same,Aortic CE-OH/LH (× 10^3),[1],12.5 ± 6.7 × 10^3
same,Aortic LOOH/LH (× 10^3),[1],4.4^a × 10^3
same,decrease of aortic concentration of C vs controls,"per protein, 1% probucol",5.6 fold
same,decrease of aortic concentration of total CoQ vs controls,"per protein, 1% probucol",2.5 fold
same,decrease of aortic concentration of vitamin E vs controls,"per protein, 1% probucol",2.9 fold
